# Results reported in patent publication US20060252807A1, “Novel ortho-terphenyl inhibitors of p38 kinase and methods of treating inflammatory disorders” (Kalypsys, Inc., priority 2005, published 2006).
# Target: T1, active p38 alpha enzyme (Upstate Biotechnology) (Homo sapiens, UniProt Q16539)
# T1 construct: purchased Upstate Biotechnology
# Assay: p38α biochemical assay (ATP turnover, luminescent detection, Cambrex PKlight)
# Details: p38α kinase; Table 1 Biological Activity
# Procedure, shortened: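 Luminescent ATP-depletion readout measures total ATP turnover by p38α phosphorylating whole MapkapK2 protein. ATP 1.4 uM final; 30C, 2 h. Compounds delivered from DMSO.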
# T1 sequence (Q16539 whole entry): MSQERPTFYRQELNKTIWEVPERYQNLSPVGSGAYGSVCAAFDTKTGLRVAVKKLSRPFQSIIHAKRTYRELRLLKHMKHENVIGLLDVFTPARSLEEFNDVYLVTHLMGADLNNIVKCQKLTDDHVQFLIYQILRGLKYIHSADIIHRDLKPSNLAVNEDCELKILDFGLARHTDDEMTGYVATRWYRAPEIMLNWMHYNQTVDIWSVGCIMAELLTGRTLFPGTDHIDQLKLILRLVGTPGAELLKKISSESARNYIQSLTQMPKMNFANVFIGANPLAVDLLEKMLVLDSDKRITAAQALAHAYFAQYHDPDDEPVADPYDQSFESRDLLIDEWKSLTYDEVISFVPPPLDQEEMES
row,IC50 [µM],Structure (SMILES)
1,> 1,COc1ccccc1CCNCc1onc(-c2ccc(F)cc2)c1-c1nc(C(=O)NC(C)C)cs1 [Example 1476]
2,> 1,CCOc1ccccc1CNCc1onc(-c2ccc(F)cc2)c1-c1nc(C(=O)NC(C)C)cs1 [Example 1477]
3,> 1,CC(C)NC(=O)c1csc(-c2c(-c3ccc(F)cc3)noc2CNCCc2ccccc2Cl)n1 [Example 1478]
4,> 1,CC(C)NC(=O)c1csc(-c2c(-c3ccc(F)cc3)noc2CNCCc2ccc(Cl)cc2)n1 [Example 1479]
5,> 1,CC(C)NC(=O)c1csc(-c2c(-c3ccc(F)cc3)noc2CNCCc2cccc(Cl)c2)n1 [Example 1480]
6,> 1,CC(C)NC(=O)c1csc(-c2c(-c3ccc(F)cc3)noc2CNC2CC(C)(C)NC(C)(C)C2)n1 [Example 1481]
7,> 1,CCN(CC)CCCC(C)NCc1onc(-c2ccc(F)cc2)c1-c1nc(C(=O)NC(C)C)cs1 (stereo not shown) [Example 1482]
8,> 1,CC(C)NC(=O)c1csc(-c2c(-c3ccc(F)cc3)noc2CNCc2ccc(F)c(Cl)c2)n1 [Example 1483]
9,> 1,CC(C)NC(=O)c1csc(-c2c(-c3ccc(F)cc3)noc2CNCCNC(=O)OC(C)(C)C)n1 [Example 1484]
10,> 1,CC(C)NC(=O)c1csc(-c2c(-c3ccc(F)cc3)noc2CNCCc2c[nH]c3ccccc23)n1 [Example 1485]
11,> 1,CC(C)NC(=O)c1csc(-c2c(-c3ccc(F)cc3)noc2CNCc2ccc(C(C)(C)C)cc2)n1 [Example 1486]
12,> 1,CC(C)NC(=O)c1csc(-c2c(-c3ccc(F)cc3)noc2CNCCCN(C)c2ccccc2)n1 [Example 1487]
13,> 1,CC(C)NC(=O)c1csc(-c2c(-c3ccc(F)cc3)noc2CNCC2(O)CCCCC2)n1 [Example 1488]
14,> 1,COc1cc(CNCc2onc(-c3ccc(F)cc3)c2-c2nc(C(=O)NC(C)C)cs2)cc(OC)c1 [Example 1489]
15,> 1,COc1ccc(CNCc2onc(-c3ccc(F)cc3)c2-c2nc(C(=O)NC(C)C)cs2)cc1OC [Example 1490]
16,> 1,CC(C)NC(=O)c1csc(-c2c(-c3ccc(F)cc3)noc2CNCC(=O)c2ccccc2)n1 [Example 1491]
17,> 1,CC(C)NC(=O)c1csc(-c2c(-c3ccc(F)cc3)noc2CNCCCNC(=O)OC(C)(C)C)n1 [Example 1492]
18,> 1,CC(C)NC(=O)c1csc(-c2c(-c3ccc(F)cc3)noc2CNCc2ccc(C(F)(F)F)cc2)n1 [Example 1493]
19,> 1,CC(C)NC(=O)c1csc(-c2c(-c3ccc(F)cc3)noc2CNCc2cccc(C(F)(F)F)c2)n1 [Example 1494]
20,> 1,CC(C)NC(=O)c1csc(-c2c(-c3ccc(F)cc3)noc2CNCc2ccc(Cl)c(Cl)c2)n1 [Example 1495]
21,> 1,CC(C)NC(=O)c1csc(-c2c(-c3ccc(F)cc3)noc2CNCc2ccc(Cl)cc2Cl)n1 [Example 1496]
22,> 1,CC(C)NC(=O)c1csc(-c2c(-c3ccc(F)cc3)noc2CNC2CCN(Cc3ccccc3)C2)n1 (stereo not shown) [Example 1497]
23,> 1,COc1ccc(OC)c(CCNCc2onc(-c3ccc(F)cc3)c2-c2nc(C(=O)NC(C)C)cs2)c1 [Example 1498]
24,> 1,CC(C)NC(=O)c1csc(-c2c(-c3ccc(F)cc3)noc2CNCc2ccc(N(C)C)cc2)n1 [Example 1499]
25,> 1,COc1ccc(CNCc2onc(-c3ccc(F)cc3)c2-c2nc(C(=O)NC(C)C)cs2)cc1O [Example 1500]
26,> 1,CC(C)NC(=O)c1csc(-c2c(-c3ccc(F)cc3)noc2CNC2CCN(Cc3ccccc3)CC2)n1 [Example 1501]
27,> 1,CC(C)NC(=O)c1csc(-c2c(-c3ccc(F)cc3)noc2CNCc2ccccc2OC(F)(F)F)n1 [Example 1502]
28,> 1,CC(C)NC(=O)c1csc(-c2c(-c3ccc(F)cc3)noc2CNCCc2ccc(S(N)(=O)=O)cc2)n1 [Example 1503]

row,IC50 [µM],Structure (SMILES)
1,> 1,COc1ccc(C(=O)CNCc2onc(-c3ccc(F)cc3)c2-c2nc(C(=O)NC(C)C)cs2)cc1 [Example 1504]
2,> 1,CC(C)NC(=O)c1csc(-c2c(-c3ccc(F)cc3)noc2CNCCc2ccc3c(c2)OCO3)n1 [Example 1505]
3,> 1,CC(C)NC(=O)c1csc(-c2c(-c3ccc(F)cc3)noc2CNCCC(c2ccccc2)c2ccccc2)n1 [Example 1506]
4,> 1,Cc1ccc(S(=O)(=O)NCCNCc2onc(-c3ccc(F)cc3)c2-c2nc(C(=O)NC(C)C)cs2)cc1 [Example 1507]
5,> 1,CC(C)NC(=O)c1csc(-c2c(-c3ccc(F)cc3)noc2CN(C)C)n1 [Example 1508]
6,> 1,CC(C)NC(=O)c1csc(-c2c(-c3ccc(F)cc3)noc2CN2CCOCC2)n1 [Example 1509]
7,> 1,CCN(C)Cc1onc(-c2ccc(F)cc2)c1-c1nc(C(=O)NC(C)C)cs1 [Example 1511]
8,> 1,C#CCN(C)Cc1onc(-c2ccc(F)cc2)c1-c1nc(C(=O)NC(C)C)cs1 [Example 1512]
9,> 1,CCN(CC)Cc1onc(-c2ccc(F)cc2)c1-c1nc(C(=O)NC(C)C)cs1 [Example 1513]
10,≤ 1,CCCN(C)Cc1onc(-c2ccc(F)cc2)c1-c1nc(C(=O)NC(C)C)cs1 [Example 1514]
11,≤ 1,CC(C)NC(=O)c1csc(-c2c(-c3ccc(F)cc3)noc2CN(C)CCO)n1 [Example 1515]
12,> 1,CC(C)NC(=O)c1csc(-c2c(-c3ccc(F)cc3)noc2CN(C)CCC#N)n1 [Example 1516]
13,> 1,CC(C)CN(C)Cc1onc(-c2ccc(F)cc2)c1-c1nc(C(=O)NC(C)C)cs1 [Example 1517]
14,> 1,CCN(Cc1onc(-c2ccc(F)cc2)c1-c1nc(C(=O)NC(C)C)cs1)C(C)C [Example 1518]
15,> 1,CCCCN(C)Cc1onc(-c2ccc(F)cc2)c1-c1nc(C(=O)NC(C)C)cs1 [Example 1519]
16,> 1,CCN(CCO)Cc1onc(-c2ccc(F)cc2)c1-c1nc(C(=O)NC(C)C)cs1 [Example 1520]
17,> 1,CC(C)NC(=O)c1csc(-c2c(-c3ccc(F)cc3)noc2CN2CCSC2)n1 [Example 1521]
18,> 1,CC(C)NC(=O)c1csc(-c2c(-c3ccc(F)cc3)noc2CN2CCCCC2C)n1 (stereo not shown) [Example 1522]
19,> 1,CC1CCN(Cc2onc(-c3ccc(F)cc3)c2-c2nc(C(=O)NC(C)C)cs2)CC1 [Example 1523]
20,> 1,CC(C)NC(=O)c1csc(-c2c(-c3ccc(F)cc3)noc2CN2CCN(C)CC2)n1 [Example 1524]
21,≤ 1,CC(C)NC(=O)c1csc(-c2c(-c3ccc(F)cc3)noc2CN2CCCC2CO)n1 (stereo not shown) [Example 1525]
22,> 1,CC(C)NC(=O)c1csc(-c2c(-c3ccc(F)cc3)noc2CN2CCC[C@@H]2CO)n1 [Example 1526]
23,> 1,CCCCN(CC)Cc1onc(-c2ccc(F)cc2)c1-c1nc(C(=O)NC(C)C)cs1 [Example 1527]
24,> 1,CCCN(CCC)Cc1onc(-c2ccc(F)cc2)c1-c1nc(C(=O)NC(C)C)cs1 [Example 1528]
25,> 1,CC(C)NC(=O)c1csc(-c2c(-c3ccc(F)cc3)noc2CN2CCSCC2)n1 [Example 1529]
26,> 1,CC(C)NC(=O)c1csc(-c2c(-c3ccc(F)cc3)noc2CN(CCO)CCO)n1 [Example 1530]
27,> 1,CC1CC(C)CN(Cc2onc(-c3ccc(F)cc3)c2-c2nc(C(=O)NC(C)C)cs2)C1 (stereo not shown) [Example 1531]
